Data: patent US9499493B2, “2,4-pyrimidinediamine compounds and their uses” (Rigel Pharmaceuticals, Inc., priority 2002, dated 2016)

What was measured:
[1] = tested on: cultured human mast cells (CHMC); test: CHMC low cell density ionomycin activation: tryptase assay; type: cell-based
[2] = tested on: cultured human mast cells (CHMC); test: CHMC low cell density IgE activation: tryptase assay; type: cell-based; settings: anti-IgE
Outline: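 Cells pelleted, taken up in warm MT, plated at 1000-1500/well, held 1 hr 37° C. Anti-IgE added, 30 min 37° C. Plates spun; supernatant mixed with tryptase substrate, 30 min RT.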

Compound | IC50 ([1]; Homo sapiens, Mast cell) | IC50 ([2]; Homo sapiens, Mast cell) | IC50 [1] | IC50 [2]
Oc1cccc(Nc2nc(Nc3ccc(OCc4nnn[nH]4)cc3)ncc2C(F)(F)F)c1 [R920846] | > 10 µM | > 10 µM |  | 
Cn1nnnc1COc1ccc(Nc2ncc(F)c(Nc3cccc(O)c3)n2)cc1 [R920860, 5-Fluoro-N4-(3-hydroxyphenyl)-N2-[4-(1-methyl-1,2,3,4-tetrazol-5-yl)methyleneoxyphenyl]-2,4-pyrimidineamine] |  |  | > 10 µM | 1.01 µM
Cn1nnnc1COc1ccc(Nc2ncc(F)c(Nc3cccc(O)c3)n2)cc1 [R920861, 5-Fluoro-N4-(3-hydroxyphenyl)-N2-[4-(1-methyl-1,2,3,4-tetrazol-5-yl)methyleneoxyphenyl]-2,4-pyrimidineamine] |  |  | > 10 µM | 0.598 µM
Cc1cnc(Nc2ccc(OCc3nnn(C)n3)cc2)nc1Nc1cccc(O)c1 [R920893, N4-(3-Hydroxyphenyl)-5-methyl-N2-[4-(2-methyl-1,2,3,4-tetrazol-5-yl)methyleneoxyphenyl]-2,4-pyrimidineamine] |  |  | > 10 µM | 1.24 µM
Cc1cnc(Nc2ccc(OCc3nnnn3C)cc2)nc1Nc1cccc(O)c1 [R920894, N4-(3-Hydroxyphenyl)-5-methyl-N2-[4-(1-methyl-1,2,3,4-tetrazol-5-yl)methyleneoxyphenyl]-2,4-pyrimidineamine] |  |  | 5.57 µM | 0.888 µM
Cn1nnc(COc2ccc(Nc3nccc(Nc4cccc(O)c4)n3)cc2)n1 [R920910, N4-(3-Hydroxyphenyl)-N2-[4-(2-methyl-1,2,3,4-tetrazol-5-yl)methyleneoxyphenyl]-2,4-pyrimidineamine] |  |  | 7.92 µM | 0.751 µM
Cn1nnnc1COc1ccc(Nc2nccc(Nc3cccc(O)c3)n2)cc1 [R920917, N4-(3-hydroxyphenyl)-N2-[4-(1-methyl-1,2,3,4-tetrazol-5-yl)methyleneoxyphenyl]-2,4-pyrimidineamine] |  |  | 9.73 µM | 1.58 µM
CN(C)C(=O)COc1cccc(Nc2ncc(F)c(Nc3ccc4c(c3)OCCO4)n2)c1 [R925755, N4-(3,4-Ethylenedioxyphenyl)-N2-[3-(N,N-dimethylamino)carbonylmethyleneoxyphenyl]-5-fluoro-2,4-pyrimidinediamine] |  |  | > 10 µM | 0.898 µM
C[C@H](Nc1nc(Nc2ccc3c(c2)OCCO3)ncc1F)[C@H](O)c1ccccc1 [R925766, N2-(3,4-Ethylendioxyphenyl)-5-fluoro-N4-[(2R)-hydroxy-(1S)-methyl-2-phenylethyl)-2,4-pyrimidinediamine] |  |  | > 10 µM | 8.9 µM
CCOC(=O)COc1ccc(Nc2ncc(-c3nnn[nH]3)c(Nc3ccc(OCC(=O)OCC)cc3)n2)cc1 [R925810, N2,N4-Bis(4-ethoxycarbonylmethyleneoxyphenyl)-5-(1,2,3,4-tetrazol-5-yl)-2,4-pyrimidinediamine] |  |  | > 10 µM | > 10 µM
CCOC(=O)c1cnc(Nc2ccc(OCC(=O)NCC3CC3)cc2)nc1Nc1cccc(O)c1 [R925838, N2-[4-(N-Cyclopropylmethylamino)carbonylmethyleneoxyphenyl]-5-ethoxycarbonyl-N4-(3-hydroxyphenyl)-2,4-pyrimidinediamine] |  |  | > 10 µM | > 10 µM
CCOC(=O)c1cnc(Nc2ccc(OCC(=O)NC)cc2)nc1Nc1cccc(O)c1 [R925839, 5-Ethoxycarbonyl-N4-(3-hydroxyphenyl)-N2-[4-(N-methylamino)carbonylmethyleneoxyphenyl]-2,4-pyrimidinediamine] |  |  | > 10 µM | > 10 µM
CCOC(=O)c1cnc(Nc2ccc(OCC(=O)NCC(O)CO)cc2)nc1Nc1cccc(O)c1 (stereo not shown) [R925840, N2-[4-(N-2,3-Dihydroxypropylamino)carbonylmethyleneoxyphenyl]-5-ethoxycarbonyl-N4-(3-hydroxyphenyl)-2,4-pyrimidinediamine] |  |  | > 10 µM | > 10 µM
COc1cccc(CNC(=O)COc2ccc(Nc3ncc(Br)c(Nc4ccc(OCC(=O)NCc5cccc(OC)c5)cc4)n3)cc2)c1 [R925841, N2,N4-Bis[4-[N-(3-methoxybenzylamino)carbonylmethyleneoxy]phenyl]-5-bromo-2,4-pyrimidinediamine] |  |  | > 10 µM | > 10 µM
O=C(COc1ccc(Nc2nc(Nc3cccc(O)c3)ncc2Br)cc1)NCC1CC1 [R925842] |  |  | > 10 µM | 7.3 µM
COc1cccc(CNC(=O)COc2ccc(Nc3nc(Nc4cccc(O)c4)ncc3Br)cc2)c1 [R925843, 5-Bromo-N2-(3-hydroxyphenyl)-N4-[4-(N-3-methoxybenzylamino)carbonylmethyleneoxyphenyl]-2,4-pyrimidinediamine] |  |  | > 10 µM | > 10 µM

Continued, values first:

IC50 ([1]; Homo sapiens, Mast cell) | IC50 ([2]; Homo sapiens, Mast cell) | IC50 [1] | IC50 [2] | Compound
 |  | > 10 µM | 5.1 µM | CNC(=O)COc1ccc(Nc2ncc(C#N)c(Nc3cccc(O)c3)n2)cc1 [R925844, 5-Cyano-N4-(3-hydroxyphenyl)-N2-[4-(N-methylamino)carbonylmethyleneoxyphenyl]-2,4-pyrimidinediamine]
 |  | > 10 µM | 2.3 µM | N#Cc1cnc(Nc2cccc(O)c2)nc1Nc1ccc(OCC(=O)NCC2CC2)cc1 [R925845, 5-Cyano-N4-[4-(N-cyclopropylmethylamino)carbonylmethyleneoxyphenyl]-N2-(3-hydroxyphenyl)-2,4-pyrimidinediamine]
 |  | > 10 µM | > 10 µM | N#Cc1cnc(Nc2ccc(OCC(=O)NCC(O)CO)cc2)nc1Nc1cccc(O)c1 (stereo not shown) [R925846, 5-Cyano-N4-(3-hydroxyphenyl)-N2-[4-(N-2,3-dihydroxypropylamino)carbonylmethyleneoxyphenyl]-2,4-pyrimidinediamine]
 |  | > 10 µM | 0.925 µM | CNC(=O)COc1ccc(Nc2nc(Nc3ccc4c(c3)OCCO4)ncc2Br)cc1 [R925851, 5-Bromo-N2-(3,4-ethylenedioxyphenyl)-N4-[4-(N-methylamino)carbonylmethyleneoxyphenyl]-2,4-pyrimidinediamine]
 |  | > 10 µM | > 10 µM | CCCNC(=O)COc1ccc(Nc2ncc(C#N)c(Nc3ccc(OCC(=O)NCCC)cc3)n2)cc1 [R925853, N2,N4-Bis[4-(N-n-propylamino)carbonylmethyleneoxyphenyl]-5-cyano-2,4-pyrimidinediamine]
 |  | > 10 µM | > 10 µM | N#Cc1cnc(Nc2ccc(OCC(=O)N3CCOCC3)cc2)nc1Nc1ccc(OCC(=O)N2CCOCC2)cc1 [R925854, N2,N4-Bis[4-(N-morphonlino)carbonylmethyleneoxyphenyl]-5-cyano-2,4-pyrimidinediamine]
 |  | > 10 µM | 4.2 µM | N#Cc1cnc(Nc2ccc(OCC(=O)N3CCCCC3)cc2)nc1Nc1ccc(OCC(=O)N2CCCCC2)cc1 [R925855, N2,N4-Bis[4-(N-piperidino)carbonylmethyleneoxyphenyl]-5-cyano-2,4-pyrimidinediamine]
 |  | 7.3 µM | 8.05 µM | CCOC(=O)CNc1nc(Nc2ccc(OCC(=O)OCC)cc2)nc(C(=O)OCC)c1[N+](=O)[O-] [R925858, 6-Ethoxycarbonyl-N4-(ethoxycarbonylmethyl)-N2-(4-ethoxycarbonylmethyleneoxyphenyl)-5-nitro-2,4-pyrimidinediamine]
 |  | > 10 µM | > 10 µM | N#Cc1cnc(Nc2ccc(OCC(=O)NCC3CC3)cc2)nc1Nc1ccc(OCC(=O)NCC2CC2)cc1 [R925859, N2,N4-Bis[4-(N-cyclopropylmethylamino)carbonylmethyleneoxyphenyl]-5-cyano-2,4-pyrimidinediamine]
 |  | > 10 µM | > 10 µM | CCCCNC(=O)COc1ccc(Nc2ncc(C#N)c(Nc3ccc(OCC(=O)NCCCC)cc3)n2)cc1 [R925860, N2,N4-Bis[4-(N-n-butylamino)carbonylmethyleneoxyphenyl]-5-cyano-2,4-pyrimidinediamine]
 |  | > 10 µM | > 10 µM | CC(C)NC(=O)COc1ccc(Nc2ncc(C#N)c(Nc3ccc(OCC(=O)NC(C)C)cc3)n2)cc1 [R925861, N2,N4-Bis[4-(N-isopropylamino)carbonylmethyleneoxyphenyl]-5-cyano-2,4-pyrimidinediamine]
 |  | > 10 µM | 0.7 µM | CCOC(=O)COc1ccc(Nc2ncc(C(F)(F)F)c(Nc3ccc(OCC(=O)OCC)cc3)n2)cc1 [R925862, N2,N4-Bis[4-(ethoxycarbonylmethyleneoxy)phenyl]-5-trifluoromethyl-2,4-pyrimidinediamine]
 |  | 4.5 µM | 1.4 µM | COC(=O)COc1cccc(Nc2ncc(F)c(Nc3cccc(OCC(=O)OC)c3)n2)c1 [R926255, N2,N4-Bis[(3-methoxycarbonylmethyleneoxy)phenyl]-5-fluoro-2,4-pyrimidinediamine]
 |  | > 10 µM | > 10 µM | CCOC(=O)c1cnc(Nc2ccc3cn[nH]c3c2)nc1Nc1ccc2cn[nH]c2c1 [R926320, N2,N4-Bis(3-indazol-6-yl)-5-ethoxycarbonyl-2,4-pyrimidinediamine]
 |  | > 10 µM | > 10 µM | CCOC(=O)c1cnc(Nc2cccc3cn[nH]c23)nc1Nc1cccc2cn[nH]c12 [R926321, N2,N4-Bis(3-indazol-7-yl)-5-ethoxycarbonyl-2,4-pyrimidinediamine]
 |  | > 10 µM | > 10 µM | CCOC(=O)c1cnc(Nc2ccc3c(c2)NC(=O)CO3)nc1Nc1ccc2c(c1)NC(=O)CO2 [R926325, N2,N4-Bis[6-(1,4-benzoxazine-3-onyl)]-5-ethoxycarbonyl-2,4-pyrimidinediamine]
 |  | > 10 µM | 0.875 µM | Cc1ccc(Nc2ncc(F)c(Nc3ccc(C)c(O)c3)n2)cc1O [R926341, N2,N4-Bis(-3-hydroxy-4-methylphenyl)-5-fluoro-2,4-pyrimidinediaminediamine]
 |  | > 10 µM | 10 µM | COCCOc1ccc(Nc2ncc(F)c(Nc3ccc(OCCOC)cc3)n2)cc1 [R926342, N2,N4-Bis[4-(2-methoxyethyleneoxy)phenyl]-5-fluoro-2,4-pyrimidinediamine]
 |  | > 10 µM | > 10 µM | COc1ccc(Nc2ncc(F)c(Nc3ccc(OC)c(-c4ccccc4)c3)n2)cc1-c1ccccc1 [R926399, N2,N4-Bis[(4-methoxy-3-phenyl)phenyl]-5-fluoro-2,4-pyrimidinediamine]
